Key:
C377 of PPP2R1A = target: T1, C377 of PPP2R1A (Homo sapiens, UniProt P30153); test: Competitive isoTOP-ABPP in 231MFP proteomes in vitro; type: binding
T1 construct: pre-incubating withaferin A (10 μM) for 30 min in 231MFP breast cancer cell proteomes; endogenous in cells; host or cells: 231MFP breast cancer cells (MDA-MB-231 derived)
Description: IsoTOP-ABPP studies were performed using the methods described in “Nature 534(7608), 570-574 (2016)” by Backus K. M., et al. and “Nature 468(7325), 790-795 (2010)” by Weerapana E., et al. Proteome samples diluted in PBS were treated with Withaferin A or vehicle for 30 minutes at 37° C. Then, IAyne (iodoacetamide-alkyne) labeling was performed for 1 hour at room temperature. CuAAC was used by sequential addition of tris(2-carboxyethyl)phosphine (1 mM), tris[(1-benzyl-1H-1,2,3-triazol-4-yl)methyl]amine (34 μM), copper (II) sulfate (1 mM), and biotin-linker-azide where the linker was functionalized with a TEV protease recognition sequence along with an isotopically light or heavy valine for treatment of control or treated proteome, respectively. After click reactions, proteomes were precipitated by centrifugation at 6500×g, washed in ice-cold methanol, combined in a 1:1 control/treated ratio, washed again, then denatured and re-solubilized by heating in 1.2% SDS/PBS to 80° C. for 5 minutes. Insoluble components were precipitated by centrifugation at 6500×g and soluble proteome was diluted in 0.2% SDS/PBS (5 ml). Labeled proteins were bound to avidin-agarose beads (170 μl re-suspended beads/sample) while rotating overnight at 4° C. Bead-linked proteins were enriched by washing three times each in PBS and water, then re-suspended in urea/PBS (6 M), reduced in TCEP (1 mM), alkylated with iodoacetamide (18 mM), then washed and re-suspended in urea/PBS (2 M), and finally trypsinized overnight with 0.5 μg/μl sequencing grade trypsin. Tryptic peptides were eluted off. Beads were washed in PBS (3 times) and water (3 times), washed in TEV buffer solution (water, TEV buffer, 100 μM dithiothreitol), and re-suspended in buffer with Ac-TEV protease and then incubated overnight. Peptides were diluted in water, acidified with formic acid (1.2 M), and prepared for analysis.
Peptides from all proteomic experiments were pressure-loaded onto an Agilent 600 series RP-HPLC system equipped with a capillary tubing (250 mm) packed with Aqua C18 reverse-phase resin (4 cm). The system was previously equilibrated with a gradient (0% B to 100% B over 10 minutes, 100% B for 5 minutes, then 0% B for 5 minutes; buffer A: 95:5 water:acetonitrile, 0.1% formic acid; buffer B: 80:20 acetonitrile:water, 0.1% formic acid). The samples were then attached using a MicroTee PEEK 360 μm fitting to a laser pulled column (13 cm) packed with Aqua C18 reverse-phase resin (10 cm) and strong-cation exchange resin (3 cm) for isoTOP-ABPP studies. Samples were analyzed using an Q Exactive Plus mass spectrometer using a 5-step Multidimensional Protein Identification Technology (MudPIT) program. […]

siPPP2R1A 231MFP cells = test: Proliferation of siPPP2R1A knockdown 231MFP cells; type: cell-based; settings: 48 h after 48 h siRNA transfection
Excerpt: PPP2R1A was transiently knocked down with siRNA using previously described methods (Benjamin et al., 2014). siRNA for a scrambled RNA oligonucleotide control and pooled RNA oligonucleotides targeting PPP2R1A were purchased from Dharmacon.

[1] = target: T2, pure human PPP2R1A protein (Homo sapiens, UniProt P30153); test: Gel-based ABPP, competition against IAyne labeling; type: binding; settings: for IC50: 30 min at 37° C. pre-treatment, IAyne labeling; for competition against IAyne labeling of pure human PPP2R1A: 30 min pre-incubation
T2 construct: purchased Origene
T2 sequence (P30153 whole entry): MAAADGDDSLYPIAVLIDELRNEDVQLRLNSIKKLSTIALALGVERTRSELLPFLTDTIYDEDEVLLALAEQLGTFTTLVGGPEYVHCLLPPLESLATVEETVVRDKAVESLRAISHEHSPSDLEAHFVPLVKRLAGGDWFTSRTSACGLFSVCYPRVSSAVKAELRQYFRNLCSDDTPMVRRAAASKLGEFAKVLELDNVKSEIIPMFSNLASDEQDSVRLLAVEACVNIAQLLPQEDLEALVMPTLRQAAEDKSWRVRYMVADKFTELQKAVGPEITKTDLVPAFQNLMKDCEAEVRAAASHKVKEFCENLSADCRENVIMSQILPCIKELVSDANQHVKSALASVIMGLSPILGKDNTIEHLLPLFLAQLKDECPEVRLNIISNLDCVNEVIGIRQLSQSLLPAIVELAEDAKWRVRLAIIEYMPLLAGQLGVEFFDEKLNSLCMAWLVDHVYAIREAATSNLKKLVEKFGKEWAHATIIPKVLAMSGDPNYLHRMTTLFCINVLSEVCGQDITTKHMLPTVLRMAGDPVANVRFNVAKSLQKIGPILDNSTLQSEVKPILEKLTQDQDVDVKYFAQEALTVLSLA
Description: Gel-based ABPP methods were performed using the methods described in “Chem Biol 22(10), 1394-1405 (2015)” by Medina-Cleghorn D., et al. Recombinant pure human proteins were purchased from Origene. Pure proteins were pre-treated with DMSO, Withaferin A, or acrylamide or chloroacetamide compounds (e.g., DKM 2-90 or JNS 1-40) for 30 minutes at 37° C. in an incubation volume of PBS (50 μL), and were subsequently treated with IAyne (10 μM final concentration) for 30 minutes at room temperature. CuAAC was performed to append rhodamine-azide onto IAyne probe-labeled proteins. The samples were separated by SDS/PAGE and scanned using a ChemiDoc MP. Inhibition of target labeling was assessed by densitometry using ImageStudio Light software.

[2] = target: T3, PP2A complex with wild-type PPP2R1A, PPP2R2A and PPP2CA (Homo sapiens, UniProt P30153); test: In vitro PP2A activity assay (phosphate release from phosphopeptide); type: biochemical; settings: 30 min prior to assay
T3 construct: PPP2CA protein TP301334) TP301334; host or cells: HEK293T
T3 sequence (P30153 whole entry): as above
T3 sequence (Q6P1F6 whole entry partner): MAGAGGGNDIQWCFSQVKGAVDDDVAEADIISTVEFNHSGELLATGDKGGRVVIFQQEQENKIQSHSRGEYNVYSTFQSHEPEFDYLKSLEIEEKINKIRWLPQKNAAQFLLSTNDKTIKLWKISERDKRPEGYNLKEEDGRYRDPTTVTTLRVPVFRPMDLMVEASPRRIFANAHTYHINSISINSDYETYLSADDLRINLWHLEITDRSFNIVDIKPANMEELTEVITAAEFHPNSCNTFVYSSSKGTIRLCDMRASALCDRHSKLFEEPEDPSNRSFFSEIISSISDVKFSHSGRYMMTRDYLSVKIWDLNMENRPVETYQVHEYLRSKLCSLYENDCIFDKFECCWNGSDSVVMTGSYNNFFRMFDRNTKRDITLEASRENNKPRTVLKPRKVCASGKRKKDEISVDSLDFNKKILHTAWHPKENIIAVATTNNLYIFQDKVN
T3 sequence (P67775 whole entry partner): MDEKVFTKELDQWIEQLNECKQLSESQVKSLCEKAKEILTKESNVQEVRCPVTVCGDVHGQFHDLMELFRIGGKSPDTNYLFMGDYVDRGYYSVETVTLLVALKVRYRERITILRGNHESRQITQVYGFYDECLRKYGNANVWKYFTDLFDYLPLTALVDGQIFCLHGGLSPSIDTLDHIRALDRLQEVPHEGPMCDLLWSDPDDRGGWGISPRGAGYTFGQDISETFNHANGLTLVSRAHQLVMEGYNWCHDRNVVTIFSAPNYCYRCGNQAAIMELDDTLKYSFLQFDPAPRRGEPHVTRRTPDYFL
Description: Wild-type mammalian expression plasmids with C-terminal FLAG tag were purchased from Origene (PPP2R1A: RC200056; PPP2R2A, MR207137). The PPP2R1A C337A mutant was generated with Agilent QuickChange Lightning site-directed mutagenesis kit according to manufacturer's instructions. […] Immediately prior to transfection, media was replaced with DMEM+5% FBS. Each plate was transfected with 20 μg of overexpression plasmid with 100 μg PEI (Sigma). After 48 hrs cells were collected in TBS, lysed by sonication, and batch bound with anti-DYKDDDDK (SEQ ID NO: 1) resin (GenScript) for 1 hr. Lysate and resin was loaded onto a gravity flow column and washed, followed by elution with 250 ng/uL 3×FLAG peptide (ApexBio A6001). Purity and concentration were verified by PAGE, UV/Spectroscopy, and BCA assay.
Activity was assayed by addition of 60 μM Thr phosphopeptide (KRpTIRR, Millipore, 12-219) at 37° C. for 25 min, and free phosphate was detected colorimetrically by malachite green kit (Cayman 10009325) per manufacturer's instructions.

T1 sequence (P30153 whole entry): as the sequence (P30153 whole entry) above

SMILES	isotopically light to heavy ratio, C377 of PPP2R1A (C377 of PPP2R1A; 100 μM, 30 min pre-treatment)	anti-proliferative effect in siPPP2R1A versus siControl cells (siPPP2R1A 231MFP cells; 100 μM)	IC50 [1] [µM]	competition against IAyne labeling of pure human PPP2R1A ([1]; gel-based ABPP)	PP2A activity, wild-type PPP2R1A ([2]; 100 μM)	improved potency towards PPP2R1A compared to DKM 2-90 ([1]; gel-based ABPP) [fold]	isotopically light to heavy ratio, C377 of PPP2R1A (C377 of PPP2R1A; 10 μM, 30 min pre-incubation, IAyne 100 μM)	PP2A activity, wild-type PPP2R1A ([2]; 10 μM)	anti-proliferative effect in siPPP2R1A versus siControl cells (siPPP2R1A 231MFP cells; 10 μM)
O=C(CCl)Nc1ccc2c(c1)OCCO2 [DKM 2-90, 2-Chloro-N-(2,3-dihydrobenzo[β][1,4]dioxin-6-yl)acetamide]	quite selectively targeted C377 of PPP2R1A	attenuation	10	confirming the competition	–	–	–	–	–
O=C(CCl)N(Cc1ccccc1)c1ccc2c(c1)OCCO2 [JNS 1-40, N-benzyl-2-chloro-N-(2,3-dihydrobenzo[b][1,4]dioxin-6-yl)acetamide]	> 5	attenuated	0.63	–	activated PP2A activity	16	–	–	–
CC1=C(CO)C(=O)O[C@@H]([C@@H](C)[C@H]2CC[C@H]3[C@@H]4C[C@H]5O[C@]56[C@@H](O)C=CC(=O)[C@]6(C)[C@H]4CC[C@]23C)C1 [withaferin A, reference compound]	–	–	–	full competition	–	–	> 5	activated PP2A activity	significantly attenuated the anti-proliferative effects

Source: patent publication US20200054651A1, “COMPOSITIONS AND METHODS FOR MODULATING PPP2R1A” (The Regents of the University of California, priority 2017, published 2020)
